The values that follow are results of earlier work, collected in patent publication US11559637B2, “Inhalers and related methods” (Norton (Waterford) Limited, priority 2017, dated 2023).

Each structure is given as a SMILES string.

`FCC(F)(F)F` [HFA134a, 1,1,1,2-tetrafluoroethane]: the surface tension result (as liquid at 25° C.) is “about 8 mN/m”. For the same molecule, the vapor pressure (at 20° C.) was 572 kpa.
